Reference: patent US10954214B2 (Janssen Pharmaceutica NV, priority 2016, dated 2021)

Legend:
[1] = target: full-length MALT1 protein (Strep-MALT1(1-824)-His) (Homo sapiens (Human), UniProt Q9UDY8); assay: MALT1 Biochemical Protease Assay (Ac-LRSR-AMC substrate); conditions: 10 nM FL MALT1, 200 μM Ac-LRSR-AMC, 4 h at RT; read-out: MALT1_Biochemical activity (Ac-LRSR-amc) IC50
In short: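 Full-length MALT1 pre-incubated with compounds (30 μM to 0.5 nM, 11 threefold steps) for 50 min at RT. After Ac-LRSR-AMC was added, the reaction ran 4 h at RT and AMC fluorescence was read. IC50 and Hill slope from curve fitting against no-enzyme and no-compound controls.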

[2] = system: IL6 secretion by TMD8 ABC-DLBCL cells; assay: Human IL6 Mesoscale assay (TMD-8); format: cell-based; conditions: Homo sapiens, TMD8; TMD-8 cells, 24 h
Protocol: (§1) NFKB signaling regulates the secretion of multiple cytokines, including IL6 and IL10. Secretion of the cytokines IL6 and IL10 by TMD8 or OCI-LY3 ABC-DLBCL cells was measured using a mesoscale assay. Inhibition of NFKB signaling by MALT1 or BTK inhibitors results in a decrease of IL6/10 secretion.
(§2) TMD8 or OCI-LY3 cells were propagated in RPMI-1640 (Sigma Aldrich) supplemented with 10% fetal bovine serum (HyClone), 1 mM sodium pyruvate (Invitrogen), 2 mM L-glutamine (Sigma Aldrich) and 1% PenStrep (Sigma Aldrich). Cell passage number should not exceed 30. Cells should be kept between 0.5-2.5 million cells per mL during culturing and cells should be supplemented every 2-3 days with fresh 50 μM beta-mercaptoenthanol. No beta-mercaptoethanol was used during the mesoscale assay.
(§3) For the Mesoscale assay, 100,000 TMD8 or OCI-LY3 cells were seeded per well into black-colored 96-well plates with clear bottom (Corning #3904) and test compounds were added in 9 dilution steps (1:2) ranging from 15 μM to 58.6 nM (final DMSO concentration 0.3%). DMSO control wells were used to determine the maximum signal (High Control (HC)). Treatment with the BTK inhibitor RN486 in a dose range from 30 nM to 131 pM (9 dilutions of 1:2) served as a positive control for NFKB pathway inhibition and was used to determine the maximum inhibition (Low Control (LC)). Compounds and cells were incubated for 24 h at 37° C. and 5% CO2 (assay volume is 150 μL). After 24 h of incubation 50 μL of the supernatant was transferred to a MSD plate (V-Plex Proinflammation Panel 1 (human) kit, Mesoscale (MSD)) and incubated for 2 h with vigorous shaking (600 rpm) at room temperature. Following incubation, plates were washed 3× with PBS+0.05% Tween-20 and 25 μL detection antibody solution (IL6 & IL10 antibodies in diluent 3 (MSD)) was added per well followed by 2 h of incubation with vigorous shaking (600 rpm) at room temperature. After 3× washes with PBS+0.05% Tween-20, plates were incubated with 150 μL 2× Read Buffer T and read on SECTOR imager.

[3] = system: IL10 secretion by TMD8 ABC-DLBCL cells; assay: Human IL10 Mesoscale assay (TMD-8); format: cell-based; conditions: Homo sapiens, TMD8; TMD-8 cells, 24 h
Protocol: as §1, §2, §3

Sequence of full-length MALT1 protein (Strep-MALT1(1-824)-His) (Q9UDY8 whole entry): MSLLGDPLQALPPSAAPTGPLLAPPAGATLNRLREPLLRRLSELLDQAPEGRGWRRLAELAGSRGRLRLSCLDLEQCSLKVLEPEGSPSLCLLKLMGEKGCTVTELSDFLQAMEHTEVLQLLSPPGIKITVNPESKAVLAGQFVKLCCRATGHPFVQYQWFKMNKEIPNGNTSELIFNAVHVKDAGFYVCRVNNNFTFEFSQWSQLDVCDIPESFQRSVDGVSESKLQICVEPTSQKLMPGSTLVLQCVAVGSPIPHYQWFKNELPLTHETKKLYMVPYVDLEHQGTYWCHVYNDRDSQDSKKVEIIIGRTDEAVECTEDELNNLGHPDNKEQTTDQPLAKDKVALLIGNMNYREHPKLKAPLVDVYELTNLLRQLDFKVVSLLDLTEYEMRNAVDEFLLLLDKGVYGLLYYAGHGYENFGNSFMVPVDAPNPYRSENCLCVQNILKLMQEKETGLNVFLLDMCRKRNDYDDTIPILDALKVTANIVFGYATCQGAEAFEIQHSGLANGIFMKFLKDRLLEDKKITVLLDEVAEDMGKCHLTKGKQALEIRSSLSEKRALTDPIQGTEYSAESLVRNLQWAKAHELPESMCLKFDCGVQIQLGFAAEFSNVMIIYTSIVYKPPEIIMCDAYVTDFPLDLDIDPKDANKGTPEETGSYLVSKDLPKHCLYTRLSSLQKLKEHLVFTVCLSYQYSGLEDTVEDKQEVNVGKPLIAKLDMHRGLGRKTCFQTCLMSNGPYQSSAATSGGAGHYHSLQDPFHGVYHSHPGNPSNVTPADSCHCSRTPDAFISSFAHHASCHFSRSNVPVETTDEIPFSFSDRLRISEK

| Structure (SMILES) | IC50 [1] [nM] | IC50 [2] [nM] | IC50 [3] [nM] |
| --- | --- | --- | --- |
| CN1CCN(c2ncc(NC(=O)c3cnn(-c4cccc5ncccc45)c3C(F)(F)F)cc2C#N)CC1 [Cpd 224, N-(5-cyano-6-(4-methylpiperazin-1-yl)pyridin-3-yl)-1-(quinolin-5-yl)-5-(trifluoromethyl)-1H-pyrazole-4-carboxamide] | 1660 | 575 | 832 |
| Cn1ncc2cc(NC(=O)c3cnn(-c4cccc5ncccc45)c3C(F)(F)F)cnc21 [Cpd 225, N-(1-methyl-1H-pyrazolo[3,4-b]pyridin-5-yl)-1-(quinolin-5-yl)-5-(trifluoromethyl)-1H-pyrazole-4-carboxamide] | 1230 | 407 | 794 |
| Cn1ccc2c(-n3ncc(C(=O)Nc4cnc(-n5nccn5)c(Cl)c4)c3C(F)(F)F)cccc2c1=O [Cpd 226, N-(5-chloro-6-(2H-1,2,3-triazol-2-yl)pyridin-3-yl)-1-(2-methyl-1-oxo-1,2-dihydroisoquinolin-5-yl)-5-(trifluoromethyl)-1H-pyrazole-4-carboxamide] | 1200 | 257 | 93 |
| N#Cc1cnnn1-c1ncc(NC(=O)c2cnn(-c3cccc4ncccc34)c2C(F)(F)F)cc1Cl [Cpd 227, N-(5-chloro-6-(5-cyano-1H-1,2,3-triazol-1-yl)pyridin-3-yl)-1-(quinolin-5-yl)-5-(trifluoromethyl)-1H-pyrazole-4-carboxamide] | 1150 | 6460 | 550 |
| O=C(O)c1cnn(-c2ccc(NC(=O)c3cnn(-c4cccc5ncccc45)c3C(F)(F)F)cc2Cl)n1 [Cpd 228, 2-(2-chloro-4-(1-(quinolin-5-yl)-5-(trifluoromethyl)-1H-pyrazole-4-carboxamido)phenyl)-2H-1,2,3-triazole-4-carboxylic acid] | 1120 | 692 | 813 |
| O=C(Nc1cnc2[nH]ncc2c1)c1cnn(-c2cccc3ncccc23)c1C(F)(F)F [Cpd 229, N-(1H-pyrazolo[3,4-b]pyridin-5-yl)-1-(quinolin-5-yl)-5-(trifluoromethyl)-1H-pyrazole-4-carboxamide] | 1120 | 912 | 331 |
| N#Cc1cc(NC(=O)c2cnn(-c3cccn4ccnc34)c2C(F)(F)F)cnc1-n1nccn1 [Cpd 230, N-(5-cyano-6-(2H-1,2,3-triazol-2-yl)pyridin-3-yl)-1-(imidazo[1,2-a]pyridin-8-yl)-5-(trifluoromethyl)-1H-pyrazole-4-carboxamide] | 1070 | 1410 | 759 |
| O=C(Nc1cnc(-n2nccn2)c(Cl)c1)c1cnn(-c2cccc3snnc23)c1C(F)(F)F [Cpd 231, 1-(benzo[d][1,2,3]thiadiazol-4-yl)-N-(5-chloro-6-(2H-1,2,3-triazol-2-yl)pyridin-3-yl)-5-(trifluoromethyl)-1H-pyrazole-4-carboxamide] | 891 | 724 | 851 |
| O=C(O)c1cn(-c2ncc(NC(=O)c3cnn(-c4cccc5ncccc45)c3C(F)(F)F)cc2Cl)nn1 [Cpd 234, 1-(3-chloro-5-(1-(quinolin-5-yl)-5-(trifluoromethyl)-1H-pyrazole-4-carboxamido)pyridin-2-yl)-1H-1,2,3-triazole-4-carboxylic acid] | 851 | 263 | 141 |
| COc1cc(NC(=O)c2cnn(-c3cccc4ncccc34)c2C(F)(F)F)cnc1-n1ccnn1 [Cpd 235, N-(5-methoxy-6-(1H-1,2,3-triazol-1-yl)pyridin-3-yl)-1-(quinolin-5-yl)-5-(trifluoromethyl)-1H-pyrazole-4-carboxamide] | 776 | 708 | 1120 |
| N#Cc1cc(NC(=O)c2cnn(-c3cccc4ncccc34)c2C(F)(F)F)ccc1C(=O)O [Cpd 237, 2-cyano-4-(1-(quinolin-5-yl)-5-(trifluoromethyl)-1H-pyrazole-4-carboxamido)benzoic acid] | 676 | 275 | 182 |
| Cn1ncc2c(-n3ncc(C(=O)Nc4cnc(-n5nccn5)c(C#N)c4)c3C(F)(F)F)cccc21 [Cpd 239, N-(5-cyano-6-(2H-1,2,3-triazol-2-yl)pyridin-3-yl)-1-(1-methyl-1H-indazol-4-yl)-5-(trifluoromethyl)-1H-pyrazole-4-carboxamide] | 661 | 324 | 562 |
| Cc1cc(NC(=O)c2cnn(-c3cccc4ncccc34)c2C(F)(F)F)cnc1-c1nnnn1C [Cpd 240] | 631 | 398 | 135 |
| Cc1nc2c(-n3ncc(C(=O)Nc4cnc(-n5nccn5)c(C#N)c4)c3C(F)(F)F)cccc2s1 [Cpd 245, N-(5-cyano-6-(2H-1,2,3-triazol-2-yl)pyridin-3-yl)-1-(2-methylbenzo[d]thiazol-4-yl)-5-(trifluoromethyl)-1H-pyrazole-4-carboxamide] | 389 | 708 | 141 |
| Cc1nc2cccc(-n3ncc(C(=O)Nc4cnc(-n5nccn5)c(C#N)c4)c3C(F)(F)F)c2s1 [Cpd 247, N-(5-cyano-6-(2H-1,2,3-triazol-2-yl)pyridin-3-yl)-1-(2-methylbenzo[d]thiazol-7-yl)-5-(trifluoromethyl)-1H-pyrazole-4-carboxamide] | 347 | > 1510 | 1780 |
| NCc1cnnn1-c1ncc(NC(=O)c2cnn(-c3cccc4ncccc34)c2C(F)(F)F)cc1Cl [Cpd 248, N-(6-(5-(aminomethyl)-1H-1,2,3-triazol-1-yl)-5-chloropyridin-3-yl)-1-(quinolin-5-yl)-5-(trifluoromethyl)-1H-pyrazole-4-carboxamide] | 331 | 1510 | 468 |
| COC(=O)c1cn(-c2ncc(NC(=O)c3cnn(-c4cccc5ncccc45)c3C(F)(F)F)cc2Cl)nn1 [Cpd 249, methyl 1-(3-chloro-5-(1-(quinolin-5-yl)-5-(trifluoromethyl)-1H-pyrazole-4-carboxamido)pyridin-2-yl)-1H-1,2,3-triazole-4-carboxylate] | 331 | 148 | 148 |
| Cn1ncc(-c2ncc(NC(=O)c3cnn(-c4cccc5ncccc45)c3C(F)(F)F)cc2C#N)n1 [Cpd 257, N-(5-cyano-6-(2-methyl-2H-1,2,3-triazol-4-yl)pyridin-3-yl)-1-(quinolin-5-yl)-5-(trifluoromethyl)-1H-pyrazole-4-carboxamide] | 234 | > 3200 | 646 |
| COC(=O)c1ncc(NC(=O)c2cnn(-c3cccc4ncccc34)c2C(F)(F)F)cc1Cl [Cpd 258, methyl 3-chloro-5-(1-(quinolin-5-yl)-5-(trifluoromethyl)-1H-pyrazole-4-carboxamido)picolinate] | 229 | 589 | 316 |
| O=C(Nc1cnc(-n2nccn2)c(Cl)c1)c1cnn(-c2ccc(F)c3cccnc23)c1C(F)(F)F [Cpd 261, N-(5-chloro-6-(2H-1,2,3-triazol-2-yl)pyridin-3-yl)-1-(5-fluoroquinolin-8-yl)-5-(trifluoromethyl)-1H-pyrazole-4-carboxamide] | 195 | 794 | 479 |
| N#Cc1cc(NC(=O)c2cnn(-c3ncc(F)c4ccccc34)c2C(F)(F)F)cnc1-n1nccn1 [Cpd 263, N-(5-cyano-6-(2H-1,2,3-triazol-2-yl)pyridin-3-yl)-1-(4-fluoroisoquinolin-1-yl)-5-(trifluoromethyl)-1H-pyrazole-4-carboxamide] | 191 | > 302 | > 302 |
| O=C(Nc1cnc(-n2nccn2)c(Cl)c1)c1cnn(-c2cnc(F)c3ccccc23)c1C(F)(F)F [Cpd 264, N-(5-chloro-6-(2H-1,2,3-triazol-2-yl)pyridin-3-yl)-1-(1-fluoroisoquinolin-4-yl)-5-(trifluoromethyl)-1H-pyrazole-4-carboxamide] | 166 | 123 | 36 |
| Cn1nc(-n2ncc(C(=O)Nc3cnc(-n4nccn4)c(C#N)c3)c2C(F)(F)F)c2cccnc21 [Cpd 265, N-(5-cyano-6-(2H-1,2,3-triazol-2-yl)pyridin-3-yl)-1-(1-methyl-1H-pyrazolo[3,4-b]pyridin-3-yl)-5-(trifluoromethyl)-1H-pyrazole-4-carboxamide] | 166 | > 1510 | 120 |
